For this test, the target named is human PAD4 (hPAD4) (Homo sapiens, UniProt Q9UM07). Briefly: RFMS human PAD4 functional assay (rapid-fire mass spectrum). The format is biochemical. Particulars: 5 nM hPAD4 enzyme, 250 μM BAEE, 50 μM Calcium; 30 min preincubation, 90 min reaction at 37° C. The procedure, abridged: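 PAD4 (10 nM) preincubated 30 min with compound (top final 50 μM), then BAEE substrate added in pH 7.5 HEPES buffer with DTT, 50 μM calcium, TPEN; 90 min at 37° C. After TCA quench, citrulline derivatized with phenyl glyoxal (4 mM final, 30 min, 37° C) and quantified by RapidFire MS against internal standard.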
human PAD4 (hPAD4), sequence (Q9UM07 whole entry): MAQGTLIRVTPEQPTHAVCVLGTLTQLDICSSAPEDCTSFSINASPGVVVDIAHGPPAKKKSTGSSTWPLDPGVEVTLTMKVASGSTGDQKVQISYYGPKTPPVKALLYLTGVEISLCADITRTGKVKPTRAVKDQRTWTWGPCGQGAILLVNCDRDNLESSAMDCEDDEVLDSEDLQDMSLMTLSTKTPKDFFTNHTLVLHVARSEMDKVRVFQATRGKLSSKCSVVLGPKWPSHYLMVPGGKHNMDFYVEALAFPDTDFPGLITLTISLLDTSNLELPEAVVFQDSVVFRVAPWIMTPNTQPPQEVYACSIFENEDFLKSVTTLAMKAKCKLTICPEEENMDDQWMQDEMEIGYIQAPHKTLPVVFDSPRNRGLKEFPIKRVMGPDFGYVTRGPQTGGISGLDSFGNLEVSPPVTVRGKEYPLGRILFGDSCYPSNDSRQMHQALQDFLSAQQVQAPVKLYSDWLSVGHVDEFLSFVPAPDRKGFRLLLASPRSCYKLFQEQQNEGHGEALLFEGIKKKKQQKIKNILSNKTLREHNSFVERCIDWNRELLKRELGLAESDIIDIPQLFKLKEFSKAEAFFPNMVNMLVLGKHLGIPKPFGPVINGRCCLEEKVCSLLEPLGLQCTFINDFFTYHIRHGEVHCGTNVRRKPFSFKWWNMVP

The IC50 is the concentration that gives 50% inhibition. With `COc1cc(C(=O)N2C[C@H]3CC[C@@H]2[C@@H]3N)cc2nc(-c3cc4ccccc4n3CC3CC3)n(CC3CN(C(=O)c4ccccc4)C3)c12` [Example 145, (1R,4R,7R)-2-{1-[(1-benzoylazetidin-3-yl)methyl]-2-[1-(cyclopropylmethyl)-1H-indol-2-yl]-7-methoxy-1H-1,3-benzodiazole-5-carbonyl}-2-azabicyclo[2.2.1]heptan-7-amine], the IC50 came to 18 nM.

`COc1cc(C(=O)N2CC3CCC2[C@@H]3N)cc2nc(-c3cc4ccccc4n3CC3CC3)n(Cc3cn(C)nc3C)c12` (stereo partly drawn) [Example 492, (7R)-2-{2-[1-(cyclopropylmethyl)-1H-indol-2-yl]-1-[(1,3-dimethyl-1H-pyrazol-4-yl)methyl]-7-methoxy-1H-1,3-benzodiazole-5-carbonyl}-2-azabicyclo[2.2.1]heptan-7-amine]: the IC50 was determined as 78 nM. As for `COc1cc(C(=O)N2C[C@H](N)C[C@@H](F)C2)cc2nc(-c3cc4ccccc4n3CC3CC3)n(CC3CC3)c12` [Example 480, (3R,5R)-1-[1-(cyclopropylmethyl)-2-[1-(cyclopropylmethyl)-1H-indol-2-yl]-7-methoxy-1H-1,3-benzodiazole-5-carbonyl]-5-fluoropiperidin-3-amine], the IC50 was 301 nM. On to `COc1cc(C(=O)N2C[C@H](N)C[C@@H](F)C2)cc2nc(-c3cc4ccccc4n3CC3CC3)n(Cc3cnn(-c4ccccc4)c3)c12` [Example 261, (3R,5R)-1-{2-[1-(cyclopropylmethyl)-1H-indol-2-yl]-7-methoxy-1-[(1-phenyl-1H-pyrazol-4-yl)methyl]-1H-1,3-benzodiazole-5-carbonyl}-5-fluoropiperidin-3-amine], for which the IC50 worked out at 49 nM.

In the case of `COc1cc(C(=O)N2C[C@H](N)C[C@@H](F)C2)cc2nc(-c3cc4ccccc4n3CC3CC3)n(CC3CN(C(=O)c4ccccc4)C3)c12` [Example 160, (3R,5R)-1-{1-[(1-benzoylazetidin-3-yl)methyl]-2-[1-(cyclopropylmethyl)-1H-indol-2-yl]-7-methoxy-1H-1,3-benzodiazole-5-carbonyl}-5-fluoropiperidin-3-amine], the IC50 was 25 nM. Turning to `COc1cc(C(=O)N2CC3CCC2[C@@H]3N)cc2nc(-c3cc4ccccc4n3CC3CC3)n(Cc3cnn(-c4ccnc(N)c4)c3)c12` (stereo partly drawn) [Example 361, (7R)-2-(1-{[1-(2-aminopyridin-4-yl)-1H-pyrazol-4-yl]methyl}-2-[1-(cyclopropylmethyl)-1H-indol-2-yl]-7-methoxy-1H-1,3-benzodiazole-5-carbonyl)-2-azabicyclo[2.2.1]heptan-7-amine], the IC50 is 25 nM. As for `COc1cc(C(=O)C2C[C@H]3CC[C@H]2[C@@H]3N)cc2nc(-c3cc4ccccc4n3CC3CC3)n(C[C@H]3CCNC3)c12` (stereo partly drawn) [Example 273, (1R,4R,7R)-2-{2-[1-(cyclopropylmethyl)-1H-indol-2-yl]-7-methoxy-1-{[(3S)-pyrrolidin-3-yl]methyl}-1H-1,3-benzodiazole-5-carbonyl}bicyclo[2.2.1]heptan-7-amine], the half-maximal inhibitory concentration (IC50) was found to be 33 nM. The value for `COc1cc(C(=O)N2CC3CCC2[C@@H]3N)cc2nc(-c3cc4cccnc4n3CC3CC3)n(CC3CC(C(N)=O)C3)c12` (stereo partly drawn) [Example 475, 3-({5-[(7R)-7-amino-2-azabicyclo[2.2.1]heptane-2-carbonyl]-2-[1-(cyclopropylmethyl)-1H-pyrrolo[2,3-b]pyridin-2-yl]-7-methoxy-1H-1,3-benzodiazol-1-yl}methyl)cyclobutane-1-carboxamide] was 180 nM. With `COc1cc(C(=O)N2CC3CCC2[C@@H]3N)cc2nc(-c3cc4ccccc4n3CC3CC3)n(Cc3cn[nH]n3)c12` (stereo partly drawn) [Example 490, (7R)-2-{2-[1-(cyclopropylmethyl)-1H-indol-2-yl]-7-methoxy-1-[(2H-1,2,3-triazol-4-yl)methyl]-1H-1,3-benzodiazole-5-carbonyl}-2-azabicyclo[2.2.1]heptan-7-amine], the 50% inhibitory concentration (IC50) turned out to be 58 nM. `COc1cc(C(=O)N2CC3CCC2[C@@H]3N)cc2nc(-c3cc4cccnc4n3CC3CC3)n(Cc3nc[nH]n3)c12` (stereo partly drawn) [Example 509, (7R)-2-{2-[1-(cyclopropylmethyl)-1H-pyrrolo[2,3-b]pyridin-2-yl]-7-methoxy-1-[(1H-l,2,4-triazol-3-yl)methyl]-1H-1,3-benzodiazole-5-carbonyl}-2-azabicyclo[2.2.1]heptan-7-amine]: the IC50 worked out at 300 nM. As to `COc1cc(C(=O)N2C[C@H](N)C[C@@H](F)C2)cc2nc(-c3cc4cccnc4n3CC3CC3)n(CC3(C)CN(C(=O)c4ccccc4)C3)c12` [Example 469, (3R,5R)-1-{1-[(1-benzoyl-3-methylazetidin-3-yl)methyl]-2-[1-(cyclopropylmethyl)-1H-pyrrolo[2,3-b]pyridin-2-yl]-7-methoxy-1H-1,3-benzodiazole-5-carbonyl}-5-fluoropiperidin-3-amine], the IC50 came to 129 nM. Take `COc1cc(C(=O)N2C[C@H]3CC[C@@H]2[C@@H]3N)cc2nc(-c3cc4cccnc4n3CC3CC3)n(C3CCNCC3)c12` [Example 309, (1R,4R,7R)-2-{2-[1-(cyclopropylmethyl)-1H-pyrrolo[2,3-b]pyridin-2-yl]-7-methoxy-1-(piperidin-4-yl)-1H-1,3-benzodiazole-5-carbonyl}-2-azabicyclo[2.2.1]heptan-7-amine]: the IC50 was 1160 nM. In the case of `COc1cc(C(=O)N2C[C@H]3CC[C@@H]2[C@@H]3N)cc2nc(-c3cc4cccnc4n3CC3CC3)n(C3CN(c4ccnc(C5CC5)n4)C3)c12` [Example 70, (1R,4R,7R)-2-{2-[1-(cyclopropylmethyl)-1H-pyrrolo[2,3-b]pyridin-2-yl]-1-[1-(2-cyclopropylpyrimidin-4-yl)azetidin-3-yl]-7-methoxy-1H-1,3-benzodiazole-5-carbonyl}-2-azabicyclo[2.2.1]heptan-7-amine], the IC50 is 87 nM. The value for `COc1cc(C(=O)N2C[C@H]3CC[C@@H]2[C@@H]3N)cc2nc(-c3cc4cccnc4n3C)n(CC3CN(c4cncnc4C#N)C3)c12` [Example 78, 5-[3-({5-[(1R,4R,7R)-7-amino-2-azabicyclo[2.2.1]heptane-2-carbonyl]-7-methoxy-2-{1-methyl-1H-pyrrolo[2,3-b]pyridin-2-yl}-1H-1,3-benzodiazol-1-yl}methyl)azetidin-1-yl]pyrimidine-4-carbonitrile] was 373 nM; that for `COc1cc(C(=O)N2C[C@H]3CC[C@@H]2[C@@H]3N)cc2nc(-c3cc4cccnc4n3CC3CC3)n(C3CN(c4nccc(C(=O)O)n4)C3)c12` [Example 72, 2-(3-{5-[(1R,4R,7R)-7-amino-2-azabicyclo[2.2.1]heptane-2-carbonyl]-2-[1-(cyclopropylmethyl)-1H-pyrrolo[2,3-b]pyridin-2-yl]-7-methoxy-1H-1,3-benzodiazol-1-yl}azetidin-1-yl)pyrimidine-4-carboxylic acid] was 113 nM; that for `COc1cc(C(=O)N2C[C@H]3CC[C@@H]2[C@@H]3N)cc2nc(-c3cc4cccnc4n3CC3CC3)n(CC3CN(C(=O)c4ccccc4)C3)c12` [Example 88, (1R,4R,7R)-2-{1-[(1-benzoylazetidin-3-yl)methyl]-2-[1-(cyclopropylmethyl)-1H-pyrrolo[2,3-b]pyridin-2-yl]-7-methoxy-1H-1,3-benzodiazole-5-carbonyl}-2-azabicyclo[2.2.1]heptan-7-amine] was 21 nM. On to `COc1cc(C(=O)N2CC3CCC2[C@@H]3N)cc2nc(-c3cc4cccnc4n3CC3CC3)n(Cc3cnn(-c4ccc[n+]([O-])c4)c3)c12` (stereo partly drawn) [Example 377, 3-[4-({5-[(7R)-7-amino-2-azabicyclo[2.2.1]heptane-2-carbonyl]-2-[1-(cyclopropylmethyl)-1H-pyrrolo[2,3-b]pyridin-2-yl]-7-methoxy-1H-1,3-benzodiazol-1-yl}methyl)-1H-pyrazol-1-yl]pyridin-1-ium-1-olate], for which the 50% inhibitory concentration (IC50) was determined as 37 nM. For `COc1cc(C(=O)N2CC3CCC2[C@@H]3N)cc2nc(-c3cc4ccccc4n3CC3CC3)n(CC3CN(C(=O)c4cc(C)nc(C)c4)C3)c12` (stereo partly drawn) [Example 418, (7R)-2-{2-[1-(cyclopropylmethyl)-1H-indol-2-yl]-1-{[1-(2,6-dimethylpyridine-4-carbonyl)azetidin-3-yl]methyl}-7-methoxy-1H-1,3-benzodiazole-5-carbonyl}-2-azabicyclo[2.2.1]heptan-7-amine], the IC50 is 14 nM.

Turning to `CCn1cc(Cn2c(-c3cc4cccnc4n3CC3CC3)nc3cc(C(=O)N4C[C@H](N)C[C@@H](F)C4)cc(OC)c32)cn1` [Example 501, (3R,5R)-1-{2-[1-(cyclopropylmethyl)-1H-pyrrolo[2,3-b]pyridin-2-yl]-1-[(1-ethyl-1H-pyrazol-4-yl)methyl]-7-methoxy-1H-1,3-benzodiazole-5-carbonyl}-5-fluoropiperidin-3-amine], the 50% inhibitory concentration (IC50) is 136 nM. `COc1cc(C(=O)N2C[C@H](N)C[C@@H](F)C2)cc2nc(-c3cc4ccccc4n3CC3CC3)n(CCCOc3ccc(C#N)cc3)c12` [Example 271, 4-(3-{5-[(3R,5R)-3-amino-5-fluoropiperidine-1-carbonyl]-2-[1-(cyclopropylmethyl)-1H-indol-2-yl]-7-methoxy-1H-1,3-benzodiazol-1-yl}propoxy)benzonitrile]: the IC50 was found to be 145 nM. With `COc1cc(C(=O)N2C[C@H]3CC[C@@H]2[C@@H]3N)cc2nc(-c3cc4ccccc4n3CC3CC3)n(CC3CN(C(=O)c4ccncc4)C3)c12` [Example 138, (1R,4R,7R)-2-{2-[1-(cyclopropylmethyl)-1H-indol-2-yl]-7-methoxy-1-{[1-(pyridine-4-carbonyl)azetidin-3-yl]methyl}-1H-1,3-benzodiazole-5-carbonyl}-2-azabicyclo[2.2.1]heptan-7-amine], the IC50 is 11 nM. For the compound `COc1cc(C(=O)N2CC3CCC2[C@@H]3N)cc2nc(-c3cc4ccccc4n3CC3CC3)n(C[C@H]3CCN(C(=O)c4ccc(C#N)cc4)C3)c12` (stereo partly drawn) [Example 226, 4-[(3S)-3-({5-[(1R,4R,7R)-7-aminobicyclo[2.2.1]heptane-2-carbonyl]-2-[1-(cyc1opropylmethyl)-1H-indo1-2-yl]-7-methoxy-1H-1,3-benzodiazol-1-yl}methyl)pyrrolidine-1-carbonyl]benzonitrile], the IC50 is 37 nM.

(Values after US12692254B2, “Benzimidazole inhibitors of PAD enzymes” (BRISTOL-MYERS SQUIBB COMPANY, priority 2018, dated 2026).)
